Reference: ChEMBL document CHEMBL2203033, “Design and synthesis of novel DFG-out RAF/vascular endothelial growth factor receptor 2 (VEGFR2) inhibitors: 3. Evaluation of 5-amino-linked thiazolo[5,4-d]pyrimidine and thiazolo[5,4-b]pyridine derivatives” (Bioorg Med Chem, 2012)
One block for each compound: values may come before it. The source made the active and inactive calls. The rule behind the calls is not given here.

How the values were obtained:
[1] = Thermodynamic solubility of the compound in Japanese pharmacopoeia 2nd fluid at pH 6.8 presence of 20 mmol/L of bile acid; type: physicochemical; conditions: read-out: Therm_solubility
[2] = target: T1, Serine/threonine-protein kinase B-raf (Homo sapiens, UniProt P15056, V600E); assay: Inhibition of BRAF V600E mutant in human HT-29 cells assessed as reduction of […] phosphorylation; type: cell-based
T1 sequence (P15056 2-766 V600E limits assumed): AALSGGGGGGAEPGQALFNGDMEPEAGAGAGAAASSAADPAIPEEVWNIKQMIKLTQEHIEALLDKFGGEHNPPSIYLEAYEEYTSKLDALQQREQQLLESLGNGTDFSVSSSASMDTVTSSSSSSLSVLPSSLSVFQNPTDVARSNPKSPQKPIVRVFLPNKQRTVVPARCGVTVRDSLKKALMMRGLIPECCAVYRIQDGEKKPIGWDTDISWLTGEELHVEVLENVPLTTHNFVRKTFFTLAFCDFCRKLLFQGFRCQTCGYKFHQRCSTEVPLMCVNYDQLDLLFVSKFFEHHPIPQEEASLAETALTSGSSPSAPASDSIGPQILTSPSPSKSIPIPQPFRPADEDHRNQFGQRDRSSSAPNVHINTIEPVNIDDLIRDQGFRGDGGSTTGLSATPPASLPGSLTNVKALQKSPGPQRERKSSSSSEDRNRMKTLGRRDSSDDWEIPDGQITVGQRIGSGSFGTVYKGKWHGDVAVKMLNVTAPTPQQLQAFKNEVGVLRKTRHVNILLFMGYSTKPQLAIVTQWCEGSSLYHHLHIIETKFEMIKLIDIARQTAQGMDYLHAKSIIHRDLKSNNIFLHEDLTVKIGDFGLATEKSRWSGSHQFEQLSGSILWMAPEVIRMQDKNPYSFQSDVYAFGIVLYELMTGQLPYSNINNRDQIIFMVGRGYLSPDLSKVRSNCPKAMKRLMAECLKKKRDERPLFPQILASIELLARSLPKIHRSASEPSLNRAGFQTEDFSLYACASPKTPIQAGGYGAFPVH

[3] = target: Vascular endothelial growth factor receptor 2 (Homo sapiens, UniProt P35968); assay: Inhibition of VEGFR2
Vascular endothelial growth factor receptor 2, sequence (P35968 whole entry): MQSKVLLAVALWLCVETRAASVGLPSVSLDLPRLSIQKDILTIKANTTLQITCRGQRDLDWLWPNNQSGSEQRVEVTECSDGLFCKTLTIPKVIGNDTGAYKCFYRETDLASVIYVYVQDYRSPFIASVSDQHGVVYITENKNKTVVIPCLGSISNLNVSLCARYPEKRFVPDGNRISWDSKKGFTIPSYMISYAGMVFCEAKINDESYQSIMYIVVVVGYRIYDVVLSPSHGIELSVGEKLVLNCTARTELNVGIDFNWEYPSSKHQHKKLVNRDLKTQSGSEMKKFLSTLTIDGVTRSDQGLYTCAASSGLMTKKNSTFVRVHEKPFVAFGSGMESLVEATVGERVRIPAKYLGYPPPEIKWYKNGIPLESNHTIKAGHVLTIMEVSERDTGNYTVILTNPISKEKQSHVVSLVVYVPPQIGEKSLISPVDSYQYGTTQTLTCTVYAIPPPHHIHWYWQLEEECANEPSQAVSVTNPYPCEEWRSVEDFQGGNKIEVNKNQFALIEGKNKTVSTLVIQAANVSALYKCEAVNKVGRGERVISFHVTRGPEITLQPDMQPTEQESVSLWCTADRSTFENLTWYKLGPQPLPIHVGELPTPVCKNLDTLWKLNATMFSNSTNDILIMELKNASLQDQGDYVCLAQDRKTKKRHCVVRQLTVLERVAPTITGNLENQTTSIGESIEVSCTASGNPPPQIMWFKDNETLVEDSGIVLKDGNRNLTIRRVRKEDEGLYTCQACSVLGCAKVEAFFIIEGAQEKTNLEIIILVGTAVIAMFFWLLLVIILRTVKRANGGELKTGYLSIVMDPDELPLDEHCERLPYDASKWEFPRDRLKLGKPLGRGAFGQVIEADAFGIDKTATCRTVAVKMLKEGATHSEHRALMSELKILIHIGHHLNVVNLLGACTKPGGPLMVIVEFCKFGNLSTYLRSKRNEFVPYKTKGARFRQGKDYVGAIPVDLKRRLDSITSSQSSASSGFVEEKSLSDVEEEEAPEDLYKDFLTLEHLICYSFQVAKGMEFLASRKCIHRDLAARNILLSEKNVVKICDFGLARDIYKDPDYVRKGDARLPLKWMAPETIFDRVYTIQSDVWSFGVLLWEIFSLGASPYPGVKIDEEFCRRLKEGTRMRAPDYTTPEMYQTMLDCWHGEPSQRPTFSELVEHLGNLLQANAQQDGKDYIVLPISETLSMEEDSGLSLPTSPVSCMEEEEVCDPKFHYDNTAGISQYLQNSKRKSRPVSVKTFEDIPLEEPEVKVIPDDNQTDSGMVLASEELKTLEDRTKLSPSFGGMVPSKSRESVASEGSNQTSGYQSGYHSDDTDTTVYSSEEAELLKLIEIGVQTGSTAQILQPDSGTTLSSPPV

[4] = target: T1, Serine/threonine-protein kinase B-raf; assay: Inhibition of recombinant BRAF V600E mutant using […] and [gamma-32P]ATP as substrate after 30 mins by scintillation counting
[5] = Intrinsic clearance in mouse liver microsomes at 1 umol/L after 20 mins in presence of NADPH; type: ADME, Microsome; conditions: read-out: CLH
[6] = Intrinsic clearance in human liver microsomes at 1 umol/L after 20 mins in presence of NADPH; type: ADME, Microsome; conditions: read-out: CLH
[7] = test system: Rattus norvegicus; assay: Toxicity in human HT-29 cells xenografted nude rat at 25 mg/kg, po qd for 2 weeks; type: organism-based; parameters: dose 25 mg/kg, route oral; conditions: in vivo, 336 h
[8] = test system: HT-29; assay: Antitumor activity against human HT-29 cells xenografted in nude rat assessed as tumor regression at 25 mg/kg, po qd for 2 weeks; type: functional
[9] = Cmax in rat at 25 mg/kg, po; type: ADME, organism-based; parameters: dose 25 mg/kg, route oral; conditions: in vivo
[10] = Oral bioavailability in rat at 25 mg/kg; type: ADME, organism-based; conditions: in vivo
[11] = AUC (0 to 24 hrs) in rat at 25 mg/kg, po; type: ADME, organism-based; parameters: time < 24 hr, dose 25 mg/kg, route oral; conditions: plasma
[12] = Mean residence time in rat at 25 mg/kg, po; type: ADME, organism-based; parameters: dose 25 mg/kg, route oral; conditions: in vivo
[13] = Mean residence time in rat at 1 mg/kg, iv; type: ADME, organism-based; parameters: dose 1 mg/kg, route intravenous; conditions: in vivo
[14] = AUC (0 to 24 hrs) in rat at 1 mg/kg, iv; type: ADME, organism-based; parameters: time < 24 hr, dose 1 mg/kg, route intravenous; conditions: plasma
[15] = Total clearance in rat at 1 mg/kg, iv; type: ADME, organism-based; parameters: dose 1 mg/kg, route intravenous; conditions: in vivo
[16] = Volume of distribution at steady state in rat at 1 mg/kg, iv; type: ADME, organism-based; parameters: dose 1 mg/kg, route intravenous; conditions: in vivo, read-out: Vdss
[17] = test system: Rattus norvegicus; assay: Inhibition of BRAF in human HT-29 cells xenografted nude rat tumor assessed as reduction of ERK phosphorylation at 25 mg/kg, po; type: functional, organism-based; parameters: dose 25 mg/kg
[18] = target: Mitogen-activated protein kinase kinase kinase 1 (Homo sapiens, UniProt Q13233); assay: Inhibition of MEKK1
[19] = target: Glycogen synthase kinase-3 beta (Homo sapiens, UniProt P49841); assay: Inhibition of GSK3beta
[20] = target: Mitogen-activated protein kinase 8 (Homo sapiens, UniProt P45983); assay: Inhibition of JNK1
[21] = target: Aurora kinase B (Homo sapiens, UniProt Q96GD4); assay: Inhibition of aurora B
Aurora kinase B, sequence (Q96GD4 whole entry): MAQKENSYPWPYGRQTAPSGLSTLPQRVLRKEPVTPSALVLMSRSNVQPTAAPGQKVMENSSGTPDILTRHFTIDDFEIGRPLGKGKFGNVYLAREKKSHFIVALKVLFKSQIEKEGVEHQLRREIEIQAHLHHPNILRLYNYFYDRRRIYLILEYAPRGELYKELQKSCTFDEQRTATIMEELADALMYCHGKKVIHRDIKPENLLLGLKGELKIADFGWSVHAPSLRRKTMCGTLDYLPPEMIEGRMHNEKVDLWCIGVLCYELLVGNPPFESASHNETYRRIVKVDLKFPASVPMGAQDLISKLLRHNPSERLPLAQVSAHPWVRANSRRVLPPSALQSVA

[22] = target: Cyclin-dependent kinase 2 (Homo sapiens, UniProt P24941); assay: Inhibition of CDK2
[23] = target: Cyclin-dependent kinase 1 (Homo sapiens, UniProt P06493); assay: Inhibition of CDK1
Cyclin-dependent kinase 1, sequence (P06493 whole entry): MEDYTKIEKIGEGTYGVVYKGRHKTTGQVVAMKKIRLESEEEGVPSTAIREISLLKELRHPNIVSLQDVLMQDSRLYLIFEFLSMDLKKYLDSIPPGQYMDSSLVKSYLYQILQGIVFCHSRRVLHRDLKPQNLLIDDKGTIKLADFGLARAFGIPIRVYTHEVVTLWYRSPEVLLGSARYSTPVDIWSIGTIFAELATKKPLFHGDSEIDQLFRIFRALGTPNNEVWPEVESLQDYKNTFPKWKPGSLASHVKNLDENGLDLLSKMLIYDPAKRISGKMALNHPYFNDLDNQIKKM

[24] = target: Mitogen-activated protein kinase 3 (Homo sapiens, UniProt P27361); assay: Inhibition of ERK1
[25] = target: Serine/threonine-protein kinase Chk1 (Homo sapiens, UniProt O14757); assay: Inhibition of CHK1
[26] = target: Protein kinase C theta type (Homo sapiens, UniProt Q04759); assay: Inhibition of PKCtheta
Protein kinase C theta type, sequence (Q04759 whole entry): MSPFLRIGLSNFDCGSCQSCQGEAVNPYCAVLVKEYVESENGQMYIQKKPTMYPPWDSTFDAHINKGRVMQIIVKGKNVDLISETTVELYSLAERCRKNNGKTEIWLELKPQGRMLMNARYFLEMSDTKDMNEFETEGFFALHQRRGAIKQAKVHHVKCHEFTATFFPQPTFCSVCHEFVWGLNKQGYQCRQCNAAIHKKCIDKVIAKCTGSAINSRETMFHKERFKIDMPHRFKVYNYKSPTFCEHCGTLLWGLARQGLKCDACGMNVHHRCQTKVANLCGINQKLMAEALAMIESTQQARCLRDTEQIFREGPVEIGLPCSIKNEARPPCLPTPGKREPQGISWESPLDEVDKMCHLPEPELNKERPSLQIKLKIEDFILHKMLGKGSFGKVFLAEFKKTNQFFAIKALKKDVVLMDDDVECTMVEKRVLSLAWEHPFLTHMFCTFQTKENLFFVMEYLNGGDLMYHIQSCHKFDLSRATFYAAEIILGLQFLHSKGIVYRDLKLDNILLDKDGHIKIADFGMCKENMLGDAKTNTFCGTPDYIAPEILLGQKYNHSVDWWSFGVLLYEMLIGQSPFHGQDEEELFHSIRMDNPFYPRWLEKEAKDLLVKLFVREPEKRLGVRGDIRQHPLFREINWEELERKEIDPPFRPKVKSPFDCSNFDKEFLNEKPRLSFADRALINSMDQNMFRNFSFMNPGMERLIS

[27] = target: Inhibitor of nuclear factor kappa-B kinase subunit beta (Homo sapiens, UniProt O14920); assay: Inhibition of IKKbeta
[28] = target: Insulin receptor (Homo sapiens, UniProt P06213); assay: Inhibition of IR
[29] = target: Mast/stem cell growth factor receptor Kit (Homo sapiens, UniProt P10721); assay: Inhibition of c-Kit
[30] = target: Angiopoietin-1 receptor (Homo sapiens, UniProt Q02763); assay: Inhibition of TIE2
[31] = target: Receptor tyrosine-protein kinase erbB-2 (Homo sapiens, UniProt P04626); assay: Inhibition of HER2
[32] = target: Platelet-derived growth factor receptor alpha (Homo sapiens, UniProt P16234); assay: Inhibition of PDGFRalpha
Platelet-derived growth factor receptor alpha, sequence (P16234 whole entry): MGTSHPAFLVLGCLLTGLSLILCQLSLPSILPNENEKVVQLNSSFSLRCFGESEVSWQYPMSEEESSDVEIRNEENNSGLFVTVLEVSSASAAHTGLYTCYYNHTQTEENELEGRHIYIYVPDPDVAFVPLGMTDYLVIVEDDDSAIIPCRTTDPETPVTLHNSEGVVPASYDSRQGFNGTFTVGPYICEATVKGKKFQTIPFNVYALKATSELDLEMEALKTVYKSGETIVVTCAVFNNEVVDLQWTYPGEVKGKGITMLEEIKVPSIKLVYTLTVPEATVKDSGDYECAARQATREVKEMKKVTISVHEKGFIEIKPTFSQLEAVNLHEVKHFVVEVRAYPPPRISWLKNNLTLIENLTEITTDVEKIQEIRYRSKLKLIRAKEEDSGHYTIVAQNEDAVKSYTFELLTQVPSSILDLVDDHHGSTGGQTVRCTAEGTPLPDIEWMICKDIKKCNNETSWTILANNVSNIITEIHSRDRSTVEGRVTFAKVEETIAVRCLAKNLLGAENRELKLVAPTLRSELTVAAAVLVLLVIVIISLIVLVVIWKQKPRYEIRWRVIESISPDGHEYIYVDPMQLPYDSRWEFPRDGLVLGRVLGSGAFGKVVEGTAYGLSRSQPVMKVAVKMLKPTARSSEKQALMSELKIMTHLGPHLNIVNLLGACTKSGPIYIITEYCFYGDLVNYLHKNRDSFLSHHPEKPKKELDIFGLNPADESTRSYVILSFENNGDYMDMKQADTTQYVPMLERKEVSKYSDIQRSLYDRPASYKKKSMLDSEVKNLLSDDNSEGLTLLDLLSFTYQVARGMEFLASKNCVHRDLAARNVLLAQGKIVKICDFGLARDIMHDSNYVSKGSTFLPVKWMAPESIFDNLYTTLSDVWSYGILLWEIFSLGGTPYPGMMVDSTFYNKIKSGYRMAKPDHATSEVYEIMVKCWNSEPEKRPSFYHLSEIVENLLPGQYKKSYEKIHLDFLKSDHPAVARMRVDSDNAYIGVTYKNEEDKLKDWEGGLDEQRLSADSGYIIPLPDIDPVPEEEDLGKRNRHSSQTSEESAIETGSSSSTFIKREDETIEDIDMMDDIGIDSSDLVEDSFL

[33] = target: Platelet-derived growth factor receptor beta (Homo sapiens, UniProt P09619); assay: Inhibition of PDGFRbeta
[34] = target: Fibroblast growth factor receptor 3 (Homo sapiens, UniProt P22607); assay: Inhibition of FGFR3
[35] = target: RAF proto-oncogene serine/threonine-protein kinase (Homo sapiens, UniProt P04049); assay: Inhibition of c-RAF
[36] = target: Dual specificity mitogen-activated protein kinase kinase 1 (Homo sapiens, UniProt Q02750)
Dual specificity mitogen-activated protein kinase kinase 1, sequence (Q02750 whole entry): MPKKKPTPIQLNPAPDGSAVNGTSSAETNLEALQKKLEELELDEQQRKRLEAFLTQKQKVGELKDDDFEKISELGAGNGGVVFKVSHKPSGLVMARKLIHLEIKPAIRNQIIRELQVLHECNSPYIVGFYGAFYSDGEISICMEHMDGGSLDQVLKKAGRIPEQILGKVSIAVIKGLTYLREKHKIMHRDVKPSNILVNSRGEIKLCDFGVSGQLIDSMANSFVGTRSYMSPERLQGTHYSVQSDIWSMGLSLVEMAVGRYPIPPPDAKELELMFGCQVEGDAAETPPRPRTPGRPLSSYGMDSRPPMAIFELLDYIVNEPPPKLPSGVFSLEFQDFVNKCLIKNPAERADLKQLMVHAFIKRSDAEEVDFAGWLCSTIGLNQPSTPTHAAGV

[37] = target: Proto-oncogene tyrosine-protein kinase Src (Homo sapiens, UniProt P12931)
[38] = target: Hepatocyte growth factor receptor (Homo sapiens, UniProt P08581)

solubility thermodynamic [1]: 35 µg/mL
SMILES: CN(c1ccc(F)c(NC(=O)c2cccc(OC(C)(C)C#N)c2Cl)c1)c1ccc2nc(NC(=O)C3CC3)sc2n1.O=S(=O)(O)O

solubility thermodynamic [1]: 0.91 µg/mL
IC50 [2]: 0.087 µM
IC50 [3]: 0.064 µM
IC50 [4]: 0.015 µM
SMILES: CC(C)(C#N)Oc1cccc(C(=O)Nc2cc(Nc3ccc4nc(NC(=O)C5CC5)sc4n3)ccc2F)c1Cl

microsomal CLint at 1 µM [5]: 25 µL/min/mg
microsomal CLint at 1 µM [6]: 22 µL/min/mg
IC50 [2]: 0.03 µM
SMILES: CC(=O)Nc1nc2ccc(N(C)c3ccc(F)c(NC(=O)c4cccc(OC(C)(C)C#N)c4)c3)nc2s1

Cmax [9]: 660 ng/mL
bioavailability [10]: 38.4%
AUC(0-t) at 24 h [11]: 5770 ng·h/mL
MRT [12]: 5.26 h
MRT [13]: 3.13 h
AUC(0-t) at 24 h [14]: 600 ng·h/mL
clearance [15]: 29.2 mL/min/kg
Vd [16]: 5.52 L/kg
solubility thermodynamic [1]: 37 µg/mL
SMILES: CN(c1ccc(F)c(NC(=O)c2cccc(OC(C)(C)C#N)c2Cl)c1)c1ccc2nc(NC(=O)C3CC3)sc2n1.O.O=S(=O)(O)c1ccccc1
Activity [7]: Non-toxic
T/C [8]: -70%

microsomal CLint at 1 µM [6]: 73 µL/min/mg
IC50 [2]: 0.12 µM
IC50 [3]: 0.34 µM
IC50 [4]: 0.091 µM
SMILES: CC(=O)Nc1nc2cnc(Nc3cc(NC(=O)c4cccc(C5(C#N)CC5)c4Cl)ccc3C)nc2s1

microsomal CLint at 1 µM [5]: 55 µL/min/mg
microsomal CLint at 1 µM [6]: 45 µL/min/mg
IC50 [2]: 0.022 µM
SMILES: CC(=O)Nc1nc2ccc(N(C)c3ccc(F)c(NC(=O)c4cccc(OC(C)(C)C#N)c4Cl)c3)nc2s1

SMILES: CN(c1ccc(F)c(NC(=O)c2cccc(OC(C)(C)C#N)c2Cl)c1)c1ccc2nc(NC(=O)C3CC3)sc2n1 [listing 1 of 2 here]
inhibition [17]: Active

microsomal CLint at 1 µM [6]: 35 µL/min/mg
IC50 [2]: > 0.5 µM
IC50 [3]: 0.41 µM
IC50 [4]: 0.051 µM
SMILES: CC(=O)Nc1nc2cnc(Nc3cc(NC(=O)c4cccc(CCC#N)c4)ccc3C)nc2s1

IC50 [18]: > 10 µM
solubility thermodynamic [1]: 18 µg/mL
IC50 [19]: > 10 µM
IC50 [20]: > 10 µM
IC50 [21]: 4 µM
IC50 [22]: > 10 µM
IC50 [23]: 3.7 µM
IC50 [24]: > 10 µM
IC50 [25]: > 10 µM
IC50 [26]: > 10 µM
IC50 [27]: 8.1 µM
IC50 [28]: > 10 µM
IC50 [29]: 0.43 µM
IC50 [30]: 0.84 µM
IC50 [31]: 1.2 µM
IC50 [32]: 0.043 µM
IC50 [33]: 0.091 µM
IC50 [34]: 0.086 µM
IC50 [35]: 0.023 µM
microsomal CLint at 1 µM [5]: 32 µL/min/mg
microsomal CLint at 1 µM [6]: 25 µL/min/mg
IC50 [36]: 1 µM
IC50 [37]: 0.13 µM
IC50 [38]: > 10 µM
SMILES: CN(c1ccc(F)c(NC(=O)c2cccc(OC(C)(C)C#N)c2Cl)c1)c1ccc2nc(NC(=O)C3CC3)sc2n1 [listing 2 of 2 here]

solubility thermodynamic [1]: 31 µg/mL
SMILES: CN(c1ccc(F)c(NC(=O)c2cccc(OC(C)(C)C#N)c2Cl)c1)c1ccc2nc(NC(=O)C3CC3)sc2n1.Cl

microsomal CLint at 1 µM [6]: 56 µL/min/mg
IC50 [2]: 0.15 µM
IC50 [3]: 0.3 µM
IC50 [4]: 0.1 µM
SMILES: CC(=O)Nc1nc2cnc(Nc3cc(NC(=O)c4cccc(CC(C)(C)C#N)c4)ccc3C)nc2s1

IC50 [2]: 0.088 µM
IC50 [3]: 0.51 µM
IC50 [4]: 0.073 µM
SMILES: CC(=O)Nc1nc2cnc(Nc3cc(NC(=O)c4cccc(OC(C)(C)C#N)c4)ccc3C)nc2s1
